Data published in ChEMBL document CHEMBL1148242, “New benzo[5,6]pyrrolizino[1,2-b]quinolines as cytotoxic agents” (Bioorg Med Chem Lett, 2004).

Tests used:
Type in all cases: functional, cell-based
L1210 = assay: In vitro cytotoxic activity of compound against mouse leukemia L1210 cell line
MCF7 = assay: In vitro cytotoxic activity of compound against human MCF-7 cell line
PC-3 = assay: In vitro cytotoxic activity of compound against human PC3 cell line

Work on `Cc1c2c(nc3ccc(OCCN4CCCCC4)cc13)-c1cc3cc(O)ccc3n1C2` yielded an IC50 (L1210) of 0.55 µM, an IC50 (MCF7) of 0.55 µM and an IC50 (PC-3) of 4.94 µM.

`CC[C@@]1(O)C(=O)OCc2c1cc1n(c2=O)Cc2cc3ccccc3nc2-1` [CAMPTOTHECIN] showed an IC50 (L1210) of 0.06 µM, an IC50 (MCF7) of 0.32 µM and an IC50 (PC-3) of 0.31 µM.

Work on `Cc1c2c(nc3ccc(O)cc13)-c1cc3cc(O)ccc3n1C2` yielded an IC50 (L1210) of 3.4 µM, an IC50 (MCF7) greater than 50 µM and an IC50 (PC-3) greater than 10 µM.

`Cc1c2c(nc3ccc(OCCN4CCCCC4)cc13)-c1cc3cc(OCCN4CCCCC4)ccc3n1C2` was tested, and the IC50 (L1210) was 0.55 µM, the IC50 (MCF7) was 4.6 µM and the IC50 (PC-3) was 5.3 µM.

`COc1ccc2c(c1)cc1n2Cc2c-1nc1ccc(OCCN3CCCCC3)cc1c2C` showed an IC50 (L1210) of 3.93 µM, an IC50 (MCF7) of 5.3 µM and an IC50 (PC-3) of 5.5 µM.

Work on `COc1ccc2c(c1)cc1n2Cc2c-1nc1ccc(O)cc1c2C` yielded an IC50 (L1210) of 0.6 µM, an IC50 (MCF7) of 12 µM and an IC50 (PC-3) greater than 50 µM.

Compound `CCc1c2c(nc3ccc(OCCN4CCCCC4)cc13)-c1cc3cc(O)ccc3n1C2` has an IC50 (L1210) of 0.55 µM, an IC50 (MCF7) of 6.3 µM and an IC50 (PC-3) of 4.8 µM.
